Measurements: publication PMC5352051, “Identification of a novel Polo-like kinase 1 inhibitor that specifically blocks the functions of Polo-Box domain” (Oncotarget, 2016)

Tests used:
Plk2 PBD = biological target: T1, Plk2 PBD (Homo sapiens, UniProt Q9NYY3); assay: Fluorescence polarization assay, Plk2 PBD / FITC-labeled phosphopeptide; format: binding
T1 construct: (326-603 aa), Plk2 (355-685 aa), and Plk3 (335-646 aa); GST (N); made in house; host or cells: E. coli Rosetta BL21(DE3)
T1 sequence (Q9NYY3 355-685): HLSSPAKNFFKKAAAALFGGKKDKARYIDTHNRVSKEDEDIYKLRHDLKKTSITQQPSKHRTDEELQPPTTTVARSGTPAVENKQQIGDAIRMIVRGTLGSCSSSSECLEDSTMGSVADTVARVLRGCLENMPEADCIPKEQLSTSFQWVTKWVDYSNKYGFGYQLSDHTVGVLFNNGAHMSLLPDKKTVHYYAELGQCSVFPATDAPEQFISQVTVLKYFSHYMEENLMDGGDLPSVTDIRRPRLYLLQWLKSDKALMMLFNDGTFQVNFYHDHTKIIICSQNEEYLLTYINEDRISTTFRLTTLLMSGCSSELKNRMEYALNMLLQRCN
Protocol: FP assay was performed as follow. Briefly, 30 μL Plk1 PBD proteins (400 nM) were incubated with 0.3 μL tested compounds (1 mg/mL) with shaking for 1 hr at room temperature (RT) prior to addition of 30 μL FITC-Poloboxtide (FITC-GPMQSpTPLNG-OH; λex/λem: 485/535 nm; 60 nM) in FP buffer (50 mM Tris-HCl, 10 mM NaCl, 1 mM EDTA pH8.0). Three wells containing 30 μL FITC-Poloboxtide (60 nM) and 30 μL Plk1 PBD (400 nM) were used as negative control (0% inhibition); three wells containing 60 μL FITC-Poloboxtide (30 nM) only were used as positive control (100% inhibition). Fluorescence polarization was analyzed after incubation of FITC-Poloboxtide for 15 min in a 384-well black opaque microplate (Cat# 6007270, PerkinElmer) using Envision Multilabel Reader (PerkinElmer) at 25°C. We calculated the percentage of inhibition for each sample as follows: Inhibition(%)=Negative−Sample/Negative−Positive×100%
We plotted the inhibition values and determined IC50 using GraphPad Prism5.0. Together with the FITC-labeled peptides used for Plk1 PBD as mentioned above, the following peptides were used for specificity assays, FITC-GPMQTSpTPKNG-OH (Plk2 PBD), FITC-GPLATSpTPKNG-OH (Plk3 PBD). As described above for the FP assay, proteins were used at the following final concentrations: Plk1 PBD, 200 nM; Plk2 PBD, 450 nM; Plk3 PBD, 600 nM. All FITC-labeled peptides were chemically synthesized (China Peptides Co., Ltd., Shanghai) and further verified by mass spectrometry, and the purity is more than 95.0%.

MCF-7 = assay: MTT assay; format: cell-based; details: Homo sapiens, MCF7; MCF-7, Breast, tumor; read-out: IC50 proliferation
Protocol: (§1) The MTT assay was performed as described. In brief, cells were seeded at 3000~5000 cells/well into 96-well plates (200 μL/well) and incubated overnight. We replaced the growth medium with fresh medium containing T521 at several concentrations (two-fold dilutions and the initial concentration is 50 μM, 10 reactions total). After further incubation for 48 hrs in the presence of T521, the medium was removed from all wells and the cells were incubated with 200 μL of fresh medium for additional 24 hrs. We then added 22 μL of MTT solution (Amresco; 5 mg/mL in PBS) to each well and incubated the plate for 4 hrs at 37°C. After removing the medium, we dissolved the purple MTT-formazan crystals by adding 150 μL of DMSO to each well and recorded absorbance at 560 nm by Envision Multilabel Reader (PerkinElmer). The inhibition curve was plotted to determine the IC50 of various cell lines using GraphPad Prism5.0.

SaOS-2 = assay: MTT assay; format: cell-based; details: Homo sapiens; SaOS-2, Bone, tumor; read-out: IC50 proliferation
Protocol: as §1

HT29 = assay: MTT assay; format: cell-based; details: Homo sapiens, HT-29; HT29, Colon, tumor; read-out: IC50 proliferation
Protocol: as §1

HEK-293 = assay: MTT assay; format: cell-based; details: Homo sapiens, HEK293; HEK-293, Kidney, normal; read-out: IC50 proliferation
Protocol: as §1

Bel7402 = assay: MTT assay; format: cell-based; details: Homo sapiens, Bel-7402; Bel7402, Liver, tumor; read-out: IC50 proliferation
Protocol: as §1

L02 = assay: MTT assay; format: cell-based; details: Homo sapiens; L02, Liver, normal; read-out: IC50 proliferation
Protocol: as §1

HepG2 = assay: MTT assay; format: cell-based; details: Homo sapiens; HepG2, Liver, tumor; read-out: IC50 proliferation
Protocol: as §1

HeLa = assay: MTT assay; format: cell-based; details: Homo sapiens, Cervix, tumor, read-out: IC50 proliferation
Protocol: as §1

PC3 = assay: MTT assay; format: cell-based; details: Homo sapiens, PC-3; PC3, Prostate, tumor; read-out: IC50 proliferation
Protocol: as §1

A549 = assay: MTT assay; format: cell-based; details: Homo sapiens; A549, Lung, tumor; read-out: IC50 proliferation
Protocol: as §1

HCT-116 = assay: MTT assay; format: cell-based; details: Homo sapiens; HCT-116, Colon, tumor; read-out: IC50 proliferation
Protocol: as §1

U-2OS = assay: MTT assay; format: cell-based; details: Homo sapiens, U2OS, Bone, tumor, read-out: IC50 proliferation
Protocol: as §1

MG63 = assay: MTT assay; format: cell-based; details: Homo sapiens, MG-63; MG63, Bone, tumor; read-out: IC50 proliferation
Protocol: as §1

MRC-5 = assay: MTT assay; format: cell-based; details: Homo sapiens, MRC5; MRC-5, Lung, normal; read-out: IC50 proliferation
Protocol: as §1

SH-SY5Y = assay: MTT assay; format: cell-based; details: Homo sapiens, Brain, tumor, read-out: IC50 proliferation
Protocol: as §1

**Q.** For `CCS(=O)(=O)c1oc(-c2ccc(F)cc2)nc1S(=O)(=O)c1ccccc1` [T521, 5-(ethylsulfonyl)-2-(4-fluorophenyl)-4-(phenylsulfonyl) oxazole], which IC50 (Plk2 PBD; FP assay, 1 hr preincubation at RT, read-out: Apparent IC50) is on record?
**A.** > 500 µM

**Q.** And the “inhibition of binding of PBD to FITC-labeled phosphopeptide” value (Plk2 PBD; concentration as high as 500 μM)?
**A.** little inhibition

**Q.** What about the IC50 (MCF-7) of the same compound?
**A.** 1.58 µM

**Q.** And the IC50 (SaOS-2)?
**A.** 1.56 µM

**Q.** And the IC50 (HT29)?
**A.** 3.86 µM

**Q.** And the IC50 (HEK-293)?
**A.** 8.66 µM

**Q.** And the IC50 (Bel7402)?
**A.** 5.13 µM

**Q.** What about the IC50 (L02) of the same compound?
**A.** 7.11 µM

**Q.** What about the IC50 (HepG2) of the same compound?
**A.** 3.17 µM

**Q.** And the IC50 (HeLa)?
**A.** 4.43 µM

**Q.** What about the IC50 (PC3) of the same compound?
**A.** 1.09 µM

**Q.** And the IC50 (A549)?
**A.** 3.56 µM

**Q.** What about the IC50 (HCT-116) of the same compound?
**A.** 3.55 µM

**Q.** What about the IC50 (U-2OS) of the same compound?
**A.** 1.06 µM

**Q.** What about the IC50 (MG63) of the same compound?
**A.** 6.25 µM

**Q.** What about the IC50 (MRC-5) of the same compound?
**A.** 2.64 µM

**Q.** And the IC50 (SH-SY5Y)?
**A.** 1.37 µM
